PubChem BioAssay (NCI)
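These data come from cells grown in 96-well plates and exposed to compound for 48 hours at five concentrations. Definition used: TGI = concentration required for complete inhibition of growth.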

Experiments:
Test in all cases: inhibition of tumour cell growth, NCI panel, 48 h
786-0 renal = tested on: 786-0 renal
A498 renal = tested on: A498 renal
A549 NSCLC = tested on: A549 NSCLC
ACHN renal = tested on: ACHN renal
BT-549 breast = tested on: BT-549 breast
CAKI-1 renal = tested on: CAKI-1 renal
CCRF-CEM leukemia = tested on: CCRF-CEM leukemia
COLO 205 colon = tested on: COLO 205 colon
DU-145 prostate = tested on: DU-145 prostate
EKVX NSCLC = tested on: EKVX NSCLC
HCC-2998 colon = tested on: HCC-2998 colon
HCT-116 colon = tested on: HCT-116 colon
HCT-15 colon = tested on: HCT-15 colon
HL-60(TB) leukemia = tested on: HL-60(TB) leukemia
HOP-62 NSCLC = tested on: HOP-62 NSCLC
HOP-92 NSCLC = tested on: HOP-92 NSCLC
HS 578T breast = tested on: HS 578T breast
HT29 colon = tested on: HT29 colon
IGROV1 ovarian = tested on: IGROV1 ovarian
K-562 leukemia = tested on: K-562 leukemia
KM12 colon = tested on: KM12 colon
LOX IMVI melanoma = tested on: LOX IMVI melanoma
M14 melanoma = tested on: M14 melanoma
MALME-3M melanoma = tested on: MALME-3M melanoma
MCF7 breast = tested on: MCF7 breast
MDA-MB-435 = tested on: MDA-MB-435
MDA-N = tested on: MDA-N
MOLT-4 leukemia = tested on: MOLT-4 leukemia
NCI-H226 lung = tested on: NCI-H226 lung
NCI-H23 lung = tested on: NCI-H23 lung
NCI-H522 lung = tested on: NCI-H522 lung
NCI/ADR-RES ovarian = tested on: NCI/ADR-RES ovarian
OVCAR-3 ovarian = tested on: OVCAR-3 ovarian
OVCAR-4 ovarian = tested on: OVCAR-4 ovarian
OVCAR-5 ovarian = tested on: OVCAR-5 ovarian
OVCAR-8 ovarian = tested on: OVCAR-8 ovarian
PC-3 prostate = tested on: PC-3 prostate
RPMI-8226 leukemia = tested on: RPMI-8226 leukemia
RXF 393 renal = tested on: RXF 393 renal
SF-268 CNS = tested on: SF-268 CNS
SF-295 CNS = tested on: SF-295 CNS
SF-539 CNS = tested on: SF-539 CNS
SK-MEL-2 melanoma = tested on: SK-MEL-2 melanoma
SK-MEL-28 melanoma = tested on: SK-MEL-28 melanoma
SK-MEL-5 melanoma = tested on: SK-MEL-5 melanoma
SK-OV-3 ovarian = tested on: SK-OV-3 ovarian
SN12C renal = tested on: SN12C renal
SNB-19 CNS = tested on: SNB-19 CNS
SNB-75 CNS = tested on: SNB-75 CNS
SR leukemia = tested on: SR leukemia
SW-620 colon = tested on: SW-620 colon
T-47D breast = tested on: T-47D breast
UACC-257 melanoma = tested on: UACC-257 melanoma
UACC-62 melanoma = tested on: UACC-62 melanoma
UO-31 renal = tested on: UO-31 renal
MDA-MB-231 breast = tested on: MDA-MB-231 breast
NCI-H460 lung = tested on: NCI-H460 lung
TK-10 renal = tested on: TK-10 renal
U251 CNS = tested on: U251 CNS

Work on `CCC(=O)Nc1ccc(NCC(=O)Nc2ccc(Cl)cc2)cc1` yielded a TGI (786-0 renal) of 35.7 µM, a TGI (A498 renal) of 46 µM and a TGI (A549 NSCLC) of 56.5 µM. It also gave a TGI (ACHN renal) of 27.9 µM, a TGI (BT-549 breast) of 48.6 µM and a TGI (CAKI-1 renal) of 53.7 µM. For the same compound, the TGI (CCRF-CEM leukemia) was 60.3 µM, the TGI (COLO 205 colon) was 35.5 µM and the TGI (DU-145 prostate) was 35.6 µM. For the same compound, the TGI (EKVX NSCLC) was 28.2 µM, the TGI (HCC-2998 colon) was 26.7 µM and the TGI (HCT-116 colon) was 30.4 µM. For the same compound, the TGI (HCT-15 colon) was 36.4 µM, the TGI (HL-60(TB) leukemia) was 42.7 µM and the TGI (HOP-62 NSCLC) was 30.7 µM. For the same compound, the TGI (HOP-92 NSCLC) was 33.4 µM, the TGI (HS 578T breast) was greater than 100 µM and the TGI (HT29 colon) was 28 µM. It also gave a TGI (IGROV1 ovarian) of 64.4 µM, a TGI (K-562 leukemia) greater than 100 µM and a TGI (KM12 colon) of 33 µM. It also gave a TGI (LOX IMVI melanoma) of 27.4 µM, a TGI (M14 melanoma) of 29.3 µM and a TGI (MALME-3M melanoma) of 34.8 µM. For the same compound, the TGI (MCF7 breast) was 29.8 µM, the TGI (MDA-MB-435) was 33.2 µM and the TGI (MDA-N) was 35.3 µM. The TGI (MOLT-4 leukemia) was 98.2 µM, the TGI (NCI-H226 lung) was 53.5 µM and the TGI (NCI-H23 lung) was 38.9 µM. It also gave a TGI (NCI-H522 lung) of 30.2 µM, a TGI (NCI/ADR-RES ovarian) of 93.6 µM and a TGI (OVCAR-3 ovarian) of 33.6 µM. The TGI (OVCAR-4 ovarian) was 33.3 µM, the TGI (OVCAR-5 ovarian) was 32.1 µM and the TGI (OVCAR-8 ovarian) was 94.4 µM. For the same compound, the TGI (PC-3 prostate) was 31.8 µM, the TGI (RPMI-8226 leukemia) was 70.3 µM and the TGI (RXF 393 renal) was 35.6 µM. The TGI (SF-268 CNS) was 55.4 µM, the TGI (SF-295 CNS) was greater than 100 µM and the TGI (SF-539 CNS) was 36.8 µM. For the same compound, the TGI (SK-MEL-2 melanoma) was 30.8 µM, the TGI (SK-MEL-28 melanoma) was 42.6 µM and the TGI (SK-MEL-5 melanoma) was 30.7 µM. For the same compound, the TGI (SK-OV-3 ovarian) was 64.1 µM, the TGI (SN12C renal) was 35.3 µM and the TGI (SNB-19 CNS) was 42 µM. The TGI (SNB-75 CNS) was 64.6 µM, the TGI (SR leukemia) was 94.1 µM and the TGI (SW-620 colon) was 74.9 µM. For the same compound, the TGI (T-47D breast) was 29.8 µM, the TGI (UACC-257 melanoma) was 36.8 µM and the TGI (UACC-62 melanoma) was 26.6 µM. The TGI (UO-31 renal) was 78.9 µM.
`CCn1c(O)c(C=Nc2ccccc2)s/c1=N/Nc1ncc(CC(=O)Nc2ccccc2C)s1` showed a TGI (786-0 renal) greater than 100 µM, a TGI (A498 renal) greater than 100 µM and a TGI (A549 NSCLC) greater than 100 µM. For the same compound, the TGI (ACHN renal) was greater than 100 µM, the TGI (CAKI-1 renal) was greater than 100 µM and the TGI (CCRF-CEM leukemia) was greater than 100 µM. It also gave a TGI (COLO 205 colon) greater than 100 µM, a TGI (DU-145 prostate) greater than 100 µM and a TGI (EKVX NSCLC) greater than 100 µM. For the same compound, the TGI (HCC-2998 colon) was greater than 100 µM, the TGI (HCT-116 colon) was greater than 100 µM and the TGI (HCT-15 colon) was greater than 100 µM. The TGI (HL-60(TB) leukemia) was greater than 100 µM, the TGI (HOP-62 NSCLC) was greater than 100 µM and the TGI (HOP-92 NSCLC) was greater than 100 µM. For the same compound, the TGI (HS 578T breast) was greater than 100 µM, the TGI (HT29 colon) was greater than 100 µM and the TGI (IGROV1 ovarian) was greater than 100 µM. For the same compound, the TGI (K-562 leukemia) was greater than 100 µM, the TGI (KM12 colon) was greater than 100 µM and the TGI (LOX IMVI melanoma) was greater than 100 µM. For the same compound, the TGI (M14 melanoma) was greater than 100 µM, the TGI (MALME-3M melanoma) was greater than 100 µM and the TGI (MCF7 breast) was greater than 100 µM. For the same compound, the TGI (MDA-MB-231 breast) was greater than 100 µM, the TGI (MDA-MB-435) was greater than 100 µM and the TGI (MDA-N) was greater than 100 µM. It also gave a TGI (MOLT-4 leukemia) greater than 100 µM, a TGI (NCI-H226 lung) greater than 100 µM and a TGI (NCI-H23 lung) greater than 100 µM. It also gave a TGI (NCI-H460 lung) greater than 100 µM, a TGI (NCI-H522 lung) greater than 100 µM and a TGI (NCI/ADR-RES ovarian) greater than 100 µM. The TGI (OVCAR-3 ovarian) was greater than 100 µM, the TGI (OVCAR-4 ovarian) was greater than 100 µM and the TGI (OVCAR-5 ovarian) was greater than 100 µM. The TGI (OVCAR-8 ovarian) was greater than 100 µM, the TGI (PC-3 prostate) was greater than 100 µM and the TGI (RPMI-8226 leukemia) was greater than 100 µM. It also gave a TGI (RXF 393 renal) greater than 100 µM, a TGI (SF-268 CNS) greater than 100 µM and a TGI (SF-295 CNS) greater than 100 µM. For the same compound, the TGI (SF-539 CNS) was greater than 100 µM, the TGI (SK-MEL-2 melanoma) was greater than 100 µM and the TGI (SK-MEL-28 melanoma) was greater than 100 µM. It also gave a TGI (SK-MEL-5 melanoma) greater than 100 µM, a TGI (SK-OV-3 ovarian) greater than 100 µM and a TGI (SN12C renal) greater than 100 µM. For the same compound, the TGI (SNB-19 CNS) was greater than 100 µM, the TGI (SNB-75 CNS) was greater than 100 µM and the TGI (SR leukemia) was greater than 100 µM. For the same compound, the TGI (SW-620 colon) was greater than 100 µM, the TGI (T-47D breast) was greater than 100 µM and the TGI (TK-10 renal) was greater than 100 µM. The TGI (U251 CNS) was greater than 100 µM, the TGI (UACC-257 melanoma) was greater than 100 µM and the TGI (UACC-62 melanoma) was greater than 100 µM. The TGI (UO-31 renal) was greater than 100 µM.
With `CC(C)(CNC(=O)/C(Cl)=C(/Cl)C(=O)O)CNC(=O)/C(Cl)=C(/Cl)C(=O)O` the TGI (786-0 renal) was greater than 100 µM, the TGI (A498 renal) was greater than 100 µM and the TGI (A549 NSCLC) was greater than 100 µM. For the same compound, the TGI (ACHN renal) was 60.3 µM, the TGI (BT-549 breast) was greater than 100 µM and the TGI (CAKI-1 renal) was greater than 100 µM. The TGI (CCRF-CEM leukemia) was greater than 100 µM, the TGI (COLO 205 colon) was 35.6 µM and the TGI (DU-145 prostate) was greater than 100 µM. For the same compound, the TGI (EKVX NSCLC) was greater than 100 µM, the TGI (HCC-2998 colon) was greater than 100 µM and the TGI (HCT-116 colon) was greater than 100 µM. For the same compound, the TGI (HL-60(TB) leukemia) was greater than 100 µM, the TGI (HOP-62 NSCLC) was greater than 100 µM and the TGI (HOP-92 NSCLC) was greater than 100 µM. It also gave a TGI (HS 578T breast) greater than 100 µM, a TGI (HT29 colon) greater than 100 µM and a TGI (IGROV1 ovarian) greater than 100 µM. For the same compound, the TGI (K-562 leukemia) was greater than 100 µM, the TGI (KM12 colon) was greater than 100 µM and the TGI (LOX IMVI melanoma) was greater than 100 µM. It also gave a TGI (MCF7 breast) greater than 100 µM, a TGI (MDA-MB-435) greater than 100 µM and a TGI (MDA-N) greater than 100 µM. The TGI (MOLT-4 leukemia) was greater than 100 µM, the TGI (NCI-H226 lung) was greater than 100 µM and the TGI (NCI-H460 lung) was greater than 100 µM. It also gave a TGI (NCI-H522 lung) greater than 100 µM, a TGI (NCI/ADR-RES ovarian) greater than 100 µM and a TGI (OVCAR-3 ovarian) greater than 100 µM. It also gave a TGI (OVCAR-4 ovarian) greater than 100 µM, a TGI (OVCAR-5 ovarian) greater than 100 µM and a TGI (OVCAR-8 ovarian) greater than 100 µM. The TGI (PC-3 prostate) was greater than 100 µM, the TGI (RPMI-8226 leukemia) was 76.3 µM and the TGI (RXF 393 renal) was greater than 100 µM. It also gave a TGI (SF-295 CNS) greater than 100 µM, a TGI (SF-539 CNS) greater than 100 µM and a TGI (SK-MEL-2 melanoma) greater than 100 µM. The TGI (SK-MEL-28 melanoma) was greater than 100 µM, the TGI (SK-MEL-5 melanoma) was greater than 100 µM and the TGI (SK-OV-3 ovarian) was greater than 100 µM. It also gave a TGI (SNB-19 CNS) greater than 100 µM, a TGI (SNB-75 CNS) greater than 100 µM and a TGI (SR leukemia) greater than 100 µM. The TGI (SW-620 colon) was greater than 100 µM, the TGI (T-47D breast) was greater than 100 µM and the TGI (TK-10 renal) was greater than 100 µM. The TGI (U251 CNS) was greater than 100 µM, the TGI (UACC-257 melanoma) was greater than 100 µM and the TGI (UACC-62 melanoma) was greater than 100 µM. For the same compound, the TGI (UO-31 renal) was greater than 100 µM.
